Assays:
CRF1 receptor = conditions: earlier CRF1 ligand; cited from earlier work
CRF1 vs. CRF2 receptors = conditions: stated in method, no reference given; cited from earlier work
[125I]ovine-CRF = molecular target: T1, [125I]ovine-CRF (Ovis aries, UniProt P01142, 125I-labelled CRF); experiment: radioligand binding
T1 chain: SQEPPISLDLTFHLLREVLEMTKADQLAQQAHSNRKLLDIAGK

CCC(COC)n1nnc2c(Nc3ccc(OC)cc3C)nc(C)cc21 (racemic) [[^3H]SN003, (+/−)-N-[2-methyl-4-methoxyphenyl]-1(1-(methoxymethyl)propyl)-6-methyl-1H-1,2,3-triazolo[4,5-c]pyridin-4-amine]
ratio of CRF1 receptor-specific to non-specific binding (CRF1 receptor): about 1

ovine-CRF
selective for CRF1 vs. CRF2 (CRF1 vs. CRF2 receptors): > 100 fold

B1: CRF1 receptor (protein)
chain: SLQDQRCENLSLTSNVSGLQCNASVDLIGTCWPRSPAGQLVVRPCPAFFYGVRYNTTNNGYRECLANGSWAARVNYSECQEILNEEKKSKVHYHVAVIINYLGHCISLVALLVAFVLFLRLRSIRCLRNIIHWNLISAFILRNATWFVVQLTVSPEVHQSNVAWCRLVTAAYNYFHVTNFFWMFGEGCYLHTAIVLTYSTDRLRKWMFVCIGWGVPFPIIVAWAIGKLHYDNEKCWFGKRPGVYTDYIYQGPMILVLLINFIFLFNIVRILMTKLRASTTSETIQYRKAVKATLVLLPLLGITYMLFFVNPGEDEVSRVVFIYFNSFLESFQGFFVSVFYCFLNSEVRSAIRKRWRRWQDKHSIRARVARAMSIPTSPTRVSFHSIKQSTAV
Kd ([125I]ovine-CRF): 0.45 nM

Reference: publication PMC4072041 (Nuclear medicine and biology, 2014)
